# US12364709B2, “Bioavailable poly amines” (AMINEX THERAPEUTICS, INC., priority 2016, dated 2025)
# Where two headings read alike, the source gives them in different places.
# Assay: 28-day repeat-dose toxicity study, toxicokinetics of AMXT 1501 dicaprate
# Assay type: in vivo, beagle dogs
# Conditions: both sexes, beagle, dog, plasma, po
# Procedure: AMXT 1501 PK parameters were calculated for all AMXT 1501 dicaprate-dosed animals for the first dose (Day 1) and last dose (Day 28).
compound,measurement,setting,value
CCCCCCCCCCCCCCCC(=O)NCCCC[C@@H](N)C(=O)NCCCNCCCCNCCCN [AMXT 1501 dicaprate],AUC(0-t),"16 mg/kg/day, 16 mg/kg/day PO, DFMO 0, Day 28, M+F combined, read-out: AUC0-t Median",8120 ng·h/mL
same,AUC(0-inf),"16 mg/kg/day, 16 mg/kg/day PO, DFMO 0, Day 28, M+F combined, read-out: AUC0-∞ Mean",8070 ng·h/mL
same,AUC(0-inf),"16 mg/kg/day, 16 mg/kg/day PO, DFMO 0, Day 28, M+F combined, read-out: AUC0-∞ Median",8280 ng·h/mL
same,Cmax,"16 mg/kg/day, 16 mg/kg/day PO, DFMO 0, Day 28, M+F combined, read-out: Cmax Mean",286 ng/mL
same,Cmax,"16 mg/kg/day, 16 mg/kg/day PO, DFMO 0, Day 28, M+F combined, read-out: Cmax Median",309 ng/mL
same,Tmax,"16 mg/kg/day, 16 mg/kg/day PO, DFMO 0, Day 28, M+F combined, read-out: Tmax Mean",5.6 h
same,Tmax,"16 mg/kg/day, 16 mg/kg/day PO, DFMO 0, Day 28, M+F combined, read-out: Tmax Median",6 h
same,half-life,"16 mg/kg/day, 16 mg/kg/day PO, DFMO 0, Day 28, M+F combined, read-out: t1/2 Mean (converted)",25.4 h
same,half-life,"16 mg/kg/day, 16 mg/kg/day PO, DFMO 0, Day 28, M+F combined, read-out: t1/2 Median (converted)",27.8 h
same,AUC(0-t),"16 mg/kg/day, 16 mg/kg/day PO, DFMO 50 mg/kg/day, Day 28, M+F combined, read-out: AUC0-24 hr Mean",4390 ng·h/mL
same,AUC(0-t),"16 mg/kg/day, 16 mg/kg/day PO, DFMO 50 mg/kg/day, Day 28, M+F combined, read-out: AUC0-24 hr Median",3340 ng·h/mL
same,AUC(0-t),"16 mg/kg/day, 16 mg/kg/day PO, DFMO 50 mg/kg/day, Day 28, M+F combined, read-out: AUC0-t Mean",9440 ng·h/mL
same,AUC(0-t),"16 mg/kg/day, 16 mg/kg/day PO, DFMO 50 mg/kg/day, Day 28, M+F combined, read-out: AUC0-t Median",6010 ng·h/mL
same,AUC(0-inf),"16 mg/kg/day, 16 mg/kg/day PO, DFMO 50 mg/kg/day, Day 28, M+F combined, read-out: AUC0-∞ Mean",9590 ng·h/mL
same,AUC(0-inf),"16 mg/kg/day, 16 mg/kg/day PO, DFMO 50 mg/kg/day, Day 28, M+F combined, read-out: AUC0-∞ Median",6080 ng·h/mL
same,Cmax,"16 mg/kg/day, 16 mg/kg/day PO, DFMO 50 mg/kg/day, Day 28, M+F combined, read-out: Cmax Mean",262 ng/mL
same,Cmax,"16 mg/kg/day, 16 mg/kg/day PO, DFMO 50 mg/kg/day, Day 28, M+F combined, read-out: Cmax Median",213 ng/mL
same,Tmax,"16 mg/kg/day, 16 mg/kg/day PO, DFMO 50 mg/kg/day, Day 28, M+F combined, read-out: Tmax Mean",6.3 h
same,Tmax,"16 mg/kg/day, 16 mg/kg/day PO, DFMO 50 mg/kg/day, Day 28, M+F combined, read-out: Tmax Median",6 h
same,half-life,"16 mg/kg/day, 16 mg/kg/day PO, DFMO 50 mg/kg/day, Day 28, M+F combined, read-out: t1/2 Mean (converted)",52.8 h
same,half-life,"16 mg/kg/day, 16 mg/kg/day PO, DFMO 50 mg/kg/day, Day 28, M+F combined, read-out: t1/2 Median (converted)",57.8 h
same,AUC(0-t),"16 mg/kg/day, 16 mg/kg/day PO, DFMO 200 mg/kg/day, Day 1, M+F combined, read-out: AUC0-24 hr Mean",2310 ng·h/mL
same,AUC(0-t),"16 mg/kg/day, 16 mg/kg/day PO, DFMO 200 mg/kg/day, Day 1, M+F combined, read-out: AUC0-24 hr Median",2470 ng·h/mL
same,Cmax,"16 mg/kg/day, 16 mg/kg/day PO, DFMO 200 mg/kg/day, Day 1, M+F combined, read-out: Cmax Mean",152 ng/mL
same,Cmax,"16 mg/kg/day, 16 mg/kg/day PO, DFMO 200 mg/kg/day, Day 1, M+F combined, read-out: Cmax Median",171 ng/mL
same,Tmax,"16 mg/kg/day, 16 mg/kg/day PO, DFMO 200 mg/kg/day, Day 1, M+F combined, read-out: Tmax Mean",8.4 h
same,Tmax,"16 mg/kg/day, 16 mg/kg/day PO, DFMO 200 mg/kg/day, Day 1, M+F combined, read-out: Tmax Median",6 h
same,AUC(0-t),"32 mg/kg/day, 32 mg/kg/day PO, DFMO 0, Day 1, M+F combined, read-out: AUC0-24 hr Mean",3590 ng·h/mL
same,AUC(0-t),"32 mg/kg/day, 32 mg/kg/day PO, DFMO 0, Day 1, M+F combined, read-out: AUC0-24 hr Median",3640 ng·h/mL
same,Cmax,"32 mg/kg/day, 32 mg/kg/day PO, DFMO 0, Day 1, M+F combined, read-out: Cmax Mean",214 ng/mL
same,Cmax,"32 mg/kg/day, 32 mg/kg/day PO, DFMO 0, Day 1, M+F combined, read-out: Cmax Median",224 ng/mL
same,Tmax,"32 mg/kg/day, 32 mg/kg/day PO, DFMO 0, Day 1, M+F combined, read-out: Tmax Mean",8.6 h
same,Tmax,"32 mg/kg/day, 32 mg/kg/day PO, DFMO 0, Day 1, M+F combined, read-out: Tmax Median",9 h
same,AUC(0-t),"32 mg/kg/day, 32 mg/kg/day PO, DFMO 0, Day 28, M+F combined, read-out: AUC0-24 hr Mean",9410 ng·h/mL
same,AUC(0-t),"32 mg/kg/day, 32 mg/kg/day PO, DFMO 0, Day 28, M+F combined, read-out: AUC0-24 hr Median",8760 ng·h/mL
same,AUC(0-t),"32 mg/kg/day, 32 mg/kg/day PO, DFMO 0, Day 28, M+F combined, read-out: AUC0-t Mean",24700 ng·h/mL
same,AUC(0-t),"32 mg/kg/day, 32 mg/kg/day PO, DFMO 0, Day 28, M+F combined, read-out: AUC0-t Median",24300 ng·h/mL
same,AUC(0-inf),"32 mg/kg/day, 32 mg/kg/day PO, DFMO 0, Day 28, M+F combined, read-out: AUC0-∞ Mean",24800 ng·h/mL
same,AUC(0-inf),"32 mg/kg/day, 32 mg/kg/day PO, DFMO 0, Day 28, M+F combined, read-out: AUC0-∞ Median",24400 ng·h/mL
same,Cmax,"32 mg/kg/day, 32 mg/kg/day PO, DFMO 0, Day 28, M+F combined, read-out: Cmax Mean",620 ng/mL
same,Cmax,"32 mg/kg/day, 32 mg/kg/day PO, DFMO 0, Day 28, M+F combined, read-out: Cmax Median",620 ng/mL
same,Tmax,"32 mg/kg/day, 32 mg/kg/day PO, DFMO 0, Day 28, M+F combined, read-out: Tmax Mean",4.3 h
same,Tmax,"32 mg/kg/day, 32 mg/kg/day PO, DFMO 0, Day 28, M+F combined, read-out: Tmax Median",4 h
same,half-life,"32 mg/kg/day, 32 mg/kg/day PO, DFMO 0, Day 28, M+F combined, read-out: t1/2 Mean (converted)",48.7 h
same,half-life,"32 mg/kg/day, 32 mg/kg/day PO, DFMO 0, Day 28, M+F combined, read-out: t1/2 Median (converted)",53.2 h
